{
  "source": "PubChem BioAssay (NCI)",
  "experiment_in_all_cases": "growth of human tumour cells (NCI), 48 h",
  "key": {"COLO 205 colon": {"tested_on": "COLO 205 colon"}, "U251 CNS": {"tested_on": "U251 CNS"}, "786-0 renal": {"tested_on": "786-0 renal"}, "NCI-H460 lung": {"tested_on": "NCI-H460 lung"}, "UO-31 renal": {"tested_on": "UO-31 renal"}, "HCT-116 colon": {"tested_on": "HCT-116 colon"}, "RPMI-8226 leukemia": {"tested_on": "RPMI-8226 leukemia"}, "LOX IMVI melanoma": {"tested_on": "LOX IMVI melanoma"}, "HL-60(TB) leukemia": {"tested_on": "HL-60(TB) leukemia"}, "TK-10 renal": {"tested_on": "TK-10 renal"}, "M19-MEL melanoma": {"tested_on": "M19-MEL melanoma"}, "SK-MEL-5 melanoma": {"tested_on": "SK-MEL-5 melanoma"}, "OVCAR-3 ovarian": {"tested_on": "OVCAR-3 ovarian"}, "A549 NSCLC": {"tested_on": "A549 NSCLC"}, "K-562 leukemia": {"tested_on": "K-562 leukemia"}, "SF-539 CNS": {"tested_on": "SF-539 CNS"}, "RXF 393 renal": {"tested_on": "RXF 393 renal"}, "SK-MEL-28 melanoma": {"tested_on": "SK-MEL-28 melanoma"}, "HT29 colon": {"tested_on": "HT29 colon"}, "SF-295 CNS": {"tested_on": "SF-295 CNS"}, "NCI-H23 lung": {"tested_on": "NCI-H23 lung"}, "SNB-78 CNS": {"tested_on": "SNB-78 CNS"}, "EKVX NSCLC": {"tested_on": "EKVX NSCLC"}, "ACHN renal": {"tested_on": "ACHN renal"}, "HOP-92 NSCLC": {"tested_on": "HOP-92 NSCLC"}, "SK-MEL-2 melanoma": {"tested_on": "SK-MEL-2 melanoma"}, "DMS 273 small cell lung": {"tested_on": "DMS 273 small cell lung"}, "A498 renal": {"tested_on": "A498 renal"}, "HCC-2998 colon": {"tested_on": "HCC-2998 colon"}, "SK-OV-3 ovarian": {"tested_on": "SK-OV-3 ovarian"}, "MOLT-4 leukemia": {"tested_on": "MOLT-4 leukemia"}, "HOP-18 NSCLC": {"tested_on": "HOP-18 NSCLC"}, "OVCAR-8 ovarian": {"tested_on": "OVCAR-8 ovarian"}, "UACC-62 melanoma": {"tested_on": "UACC-62 melanoma"}, "SR leukemia": {"tested_on": "SR leukemia"}, "HCT-15 colon": {"tested_on": "HCT-15 colon"}, "SN12C renal": {"tested_on": "SN12C renal"}, "DMS 114 small cell lung": {"tested_on": "DMS 114 small cell lung"}, "OVCAR-4 ovarian": {"tested_on": "OVCAR-4 ovarian"}, "SNB-75 CNS": {"tested_on": "SNB-75 CNS"}, "M14 melanoma": {"tested_on": "M14 melanoma"}, "SW-620 colon": {"tested_on": "SW-620 colon"}, "KM12 colon": {"tested_on": "KM12 colon"}, "SNB-19 CNS": {"tested_on": "SNB-19 CNS"}, "OVCAR-5 ovarian": {"tested_on": "OVCAR-5 ovarian"}, "SF-268 CNS": {"tested_on": "SF-268 CNS"}, "UACC-257 melanoma": {"tested_on": "UACC-257 melanoma"}, "NCI-H522 lung": {"tested_on": "NCI-H522 lung"}, "XF 498 CNS": {"tested_on": "XF 498 CNS"}, "IGROV1 ovarian": {"tested_on": "IGROV1 ovarian"}, "CCRF-CEM leukemia": {"tested_on": "CCRF-CEM leukemia"}, "HOP-62 NSCLC": {"tested_on": "HOP-62 NSCLC"}, "KM20L2 colon": {"tested_on": "KM20L2 colon"}, "CAKI-1 renal": {"tested_on": "CAKI-1 renal"}, "MALME-3M melanoma": {"tested_on": "MALME-3M melanoma"}, "NCI-H226 lung": {"tested_on": "NCI-H226 lung"}, "LXFL 529 NSCLC": {"tested_on": "LXFL 529 NSCLC"}},
  "note": "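Method: 48-hour compound exposure of cells in 96-well plates, five concentrations, linear interpolation of endpoints. At the TGI there is no net growth.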",
  "data": [
    {"molecule": "CCCCc1c2c(nc3c1CCc1cc(C=O)c(N)nc1-3)/C(=C/c1ccccc1)CCC2", "values": [
      {"measurement": "TGI", "setting": "COLO 205 colon", "result": 32.3, "unit": "µM"},
      {"measurement": "TGI", "setting": "U251 CNS", "result": "> 100", "unit": "µM"},
      {"measurement": "TGI", "setting": "786-0 renal", "result": "> 100", "unit": "µM"},
      {"measurement": "TGI", "setting": "NCI-H460 lung", "result": "> 100", "unit": "µM"},
      {"measurement": "TGI", "setting": "UO-31 renal", "result": "> 100", "unit": "µM"},
      {"measurement": "TGI", "setting": "HCT-116 colon", "result": "> 100", "unit": "µM"},
      {"measurement": "TGI", "setting": "RPMI-8226 leukemia", "result": "> 100", "unit": "µM"},
      {"measurement": "TGI", "setting": "LOX IMVI melanoma", "result": "> 100", "unit": "µM"},
      {"measurement": "TGI", "setting": "HL-60(TB) leukemia", "result": "> 100", "unit": "µM"},
      {"measurement": "TGI", "setting": "TK-10 renal", "result": "> 100", "unit": "µM"},
      {"measurement": "TGI", "setting": "M19-MEL melanoma", "result": "> 100", "unit": "µM"},
      {"measurement": "TGI", "setting": "SK-MEL-5 melanoma", "result": "> 100", "unit": "µM"},
      {"measurement": "TGI", "setting": "OVCAR-3 ovarian", "result": "> 100", "unit": "µM"},
      {"measurement": "TGI", "setting": "A549 NSCLC", "result": 61.5, "unit": "µM"},
      {"measurement": "TGI", "setting": "K-562 leukemia", "result": "> 100", "unit": "µM"},
      {"measurement": "TGI", "setting": "SF-539 CNS", "result": "> 100", "unit": "µM"},
      {"measurement": "TGI", "setting": "RXF 393 renal", "result": "> 100", "unit": "µM"},
      {"measurement": "TGI", "setting": "SK-MEL-28 melanoma", "result": "> 100", "unit": "µM"},
      {"measurement": "TGI", "setting": "HT29 colon", "result": "> 100", "unit": "µM"},
      {"measurement": "TGI", "setting": "SF-295 CNS", "result": "> 100", "unit": "µM"},
      {"measurement": "TGI", "setting": "NCI-H23 lung", "result": "> 100", "unit": "µM"},
      {"measurement": "TGI", "setting": "SNB-78 CNS", "result": "> 100", "unit": "µM"},
      {"measurement": "TGI", "setting": "EKVX NSCLC", "result": "> 100", "unit": "µM"},
      {"measurement": "TGI", "setting": "ACHN renal", "result": "> 100", "unit": "µM"},
      {"measurement": "TGI", "setting": "HOP-92 NSCLC", "result": "> 100", "unit": "µM"},
      {"measurement": "TGI", "setting": "SK-MEL-2 melanoma", "result": "> 100", "unit": "µM"},
      {"measurement": "TGI", "setting": "DMS 273 small cell lung", "result": "> 100", "unit": "µM"},
      {"measurement": "TGI", "setting": "A498 renal", "result": 47.5, "unit": "µM"},
      {"measurement": "TGI", "setting": "HCC-2998 colon", "result": 45.1, "unit": "µM"},
      {"measurement": "TGI", "setting": "SK-OV-3 ovarian", "result": "> 100", "unit": "µM"},
      {"measurement": "TGI", "setting": "MOLT-4 leukemia", "result": "> 100", "unit": "µM"},
      {"measurement": "TGI", "setting": "HOP-18 NSCLC", "result": "> 100", "unit": "µM"},
      {"measurement": "TGI", "setting": "OVCAR-8 ovarian", "result": "> 100", "unit": "µM"},
      {"measurement": "TGI", "setting": "UACC-62 melanoma", "result": "> 100", "unit": "µM"},
      {"measurement": "TGI", "setting": "SR leukemia", "result": "> 100", "unit": "µM"},
      {"measurement": "TGI", "setting": "HCT-15 colon", "result": "> 100", "unit": "µM"},
      {"measurement": "TGI", "setting": "SN12C renal", "result": "> 100", "unit": "µM"},
      {"measurement": "TGI", "setting": "DMS 114 small cell lung", "result": "> 100", "unit": "µM"},
      {"measurement": "TGI", "setting": "OVCAR-4 ovarian", "result": "> 100", "unit": "µM"},
      {"measurement": "TGI", "setting": "SNB-75 CNS", "result": "> 100", "unit": "µM"},
      {"measurement": "TGI", "setting": "M14 melanoma", "result": "> 100", "unit": "µM"},
      {"measurement": "TGI", "setting": "SW-620 colon", "result": "> 100", "unit": "µM"},
      {"measurement": "TGI", "setting": "KM12 colon", "result": "> 100", "unit": "µM"},
      {"measurement": "TGI", "setting": "SNB-19 CNS", "result": "> 100", "unit": "µM"},
      {"measurement": "TGI", "setting": "OVCAR-5 ovarian", "result": "> 100", "unit": "µM"},
      {"measurement": "TGI", "setting": "SF-268 CNS", "result": "> 100", "unit": "µM"},
      {"measurement": "TGI", "setting": "UACC-257 melanoma", "result": "> 100", "unit": "µM"},
      {"measurement": "TGI", "setting": "NCI-H522 lung", "result": "> 100", "unit": "µM"},
      {"measurement": "TGI", "setting": "XF 498 CNS", "result": "> 100", "unit": "µM"},
      {"measurement": "TGI", "setting": "IGROV1 ovarian", "result": "> 100", "unit": "µM"},
      {"measurement": "TGI", "setting": "CCRF-CEM leukemia", "result": "> 100", "unit": "µM"},
      {"measurement": "TGI", "setting": "HOP-62 NSCLC", "result": "> 100", "unit": "µM"},
      {"measurement": "TGI", "setting": "KM20L2 colon", "result": "> 100", "unit": "µM"},
      {"measurement": "TGI", "setting": "CAKI-1 renal", "result": "> 100", "unit": "µM"},
      {"measurement": "TGI", "setting": "MALME-3M melanoma", "result": "> 100", "unit": "µM"},
      {"measurement": "TGI", "setting": "NCI-H226 lung", "result": "> 100", "unit": "µM"},
      {"measurement": "TGI", "setting": "LXFL 529 NSCLC", "result": "> 100", "unit": "µM"}
    ]}
  ]
}
